Consider 2 substances from patent US6849405B2, “Translation enhancer element of the human amyloid precursor protein gene” (The Brigham and Women's Hospital, Inc., priority 1997, dated 2005).

Experiment [1] concerns APP protein synthesis in primary human fetal astrocytes. As to the kind of experiment: Intracellular APP protein synthesis, [35S]-methionine pulse labeling and immunoprecipitation, primary astrocytes. The class given is cell-based. The following applies: 0.5 ng/ml, 16 hours, 30 minute [35S]-methionine labeling. As for the experimental part:
Primary human astrocytes were prepared by trypsinization of human fetal brain tissue by a previously described method (Das, et al., Neuron 14; 447 (1995)). Cells were seeded onto poly-L-lysine (10 μg/ml) coated plates and were grown to 70% confluence in DMEM medium, (low glucose) supplemented with 10% fetal bovine serum. In order to eliminate microglia, the cultures were treated with 5 mM H-Leu-O-methylester (Guilian, J. Neurosci. Res. 18:155 (1987)). For immunofluorescence, cells were replated at a density of 100,000 cells per 60-mm petri dish on poly-L-lysine coated glass coverslips and grown for 24 hours in 0.5 ml of medium to allow the cells to attach. The presence of glial fibrillary acidic protein (GFAP) was detected by immunofluorescent staining of formaldehyde fixed cells using a 1:10 dilution of rabbit IgG1 antibody specific for human GFAP. Primary GFAP-specific antibody was added to the coverslips for 30 minutes at room temperature in phosphate buffered saline and 10% goat serum. […] Fluorescence microscopy scored the cells used in the metabolic experiments as 95% pure astrocytes. […]
Intracellular APP protein synthesis was determined in primary astrocytes after plating cells in equal numbers into 8 microtiter wells prior to each treatment (1×10^5 cells per well in 96 well dishes). […]

For experiment [2], the system named is APP synthesis in human astrocytoma (U373MG) cells. As to the kind of experiment: APP synthesis, [35S]-methionine labeling and immunoprecipitation, astrocytoma cells. The class given is cell-based. Conditions: 0.5 ng/ml, 16 hrs, maximal. As for the experimental part: Primary human astrocytes were prepared by trypsinization of human fetal brain tissue by a previously described method (Das, et al., Neuron 14; 447 (1995)). Cells were seeded onto poly-L-lysine (10 μg/ml) coated plates and were grown to 70% confluence in DMEM medium, (low glucose) supplemented with 10% fetal bovine serum. In order to eliminate microglia, the cultures were treated with 5 mM H-Leu-O-methylester (Guilian, J. Neurosci. Res. 18:155 (1987)). For immunofluorescence, cells were replated at a density of 100,000 cells per 60-mm petri dish on poly-L-lysine coated glass coverslips and grown for 24 hours in 0.5 ml of medium to allow the cells to attach. The presence of glial fibrillary acidic protein (GFAP) was detected by immunofluorescent staining of formaldehyde fixed cells using a 1:10 dilution of rabbit IgG1 antibody specific for human GFAP. Primary GFAP-specific antibody was added to the coverslips for 30 minutes at room temperature in phosphate buffered saline and 10% goat serum. The secondary antibodies used were goat anti-rabbit IgG conjugated to fluorescein isothiocyanate at a dilution of 1:100 (Boehringer). Fluorescence microscopy scored the cells used in the metabolic experiments as 95% pure astrocytes. […] The U373MG astrocytoma cell line was cultured on 100 mm uncoated dishes to 60-80% confluence in DMEM medium supplemented with 10% fetal bovine serum. […]

Another experiment deals with ACT-mRNA. As to the kind of experiment: Northern blot of ACT-mRNA, astrocytoma cells. Conditions: Northern blot, 16 hours stimulation. The class given is cell-based, human. As for the experimental part:
Total RNA (10 μg) was extracted from primary astrocytes and astrocytoma cells with a RNA-STAT kit (Tel-Test). RNA samples were denatured in 50% formamide/2.2 M formaldehyde/20 mM MOPS/5 mM sodium acetate/0.5 mM EDTA, pH 7.4, at 60° C. for 10 minutes, electrophoresed on 1.0% agarose-formaldehyde gels, blotted onto Hybond-N filters and immobilized by UV crosslinking and heating filters to 80° C. Filters were prehybridized for 3 hours and hybridized overnight in a solution consisting of 50% formamide, […] denatured salmon sperm DNA, 5×SSC, 0.1% sodium dodecyl sulfate and 5×Denhardt's solution. Following hybridization, filters were washed twice for a total of 1 hour in 2×SSC/0.2% sodium dodecyl sulfate at room temperature and twice each for a total of 1 hour in 0.5×SSC/0.1% sodium dodecyl sulfate at 55° C. Equal loading was verified by ethidium bromide staining, non-specific hybridization of the ACT probe to the 28S rRNA, and by standardized hybridization to the GAPDH cDNA probe as an internal standard. The APP cDNA probe corresponded to the unique internal 1 kb fragment gel purified from the 3 kb APP cDNA (Kang et al. Nature 325: 733 (1987)), the ACT cRNA probe to a PstI/SacI fragment (536-943) in the human ACT cDNA (Chandra, et al., Biochemistry 22: 5055 (1983)) and the GAPDH probe to the human GAPDH gene (Tokunaga, et al., Cancer Res. 47: 5616 (1987)).

Consider interleukin-1α [IL-1α], for which the “increase in the synthesis of intracellular APP” value in experiment [1] was found to be 4 fold. For the same substance, in experiment [2], the “increase in rate of APP synthesis” value was 2.8 fold. The “ACT mRNA transcriptional change” value in the experiment with ACT-mRNA is “large transcriptional increase”.

With interleukin-1β [IL-1β], in experiment [1], the “increase in the synthesis of intracellular APP” value is 3 fold. In addition, the “increase in rate of APP synthesis” value in experiment [2] turned out to be 4.3 fold. The “ACT mRNA transcriptional change” value with ACT-mRNA was “large transcriptional increase”.
